# Like-named read-outs stand apart in the source and are kept apart here.
# Assays:
# [1] = system: OVCAR-8; test: Compound activity in OVCAR-8 cell line; type: cell-based; conditions: for IC50: OVCAR-8, read-out: OVCAR-8 IC50 (nM) ± SD
# [2] = system: NCI/ADR-RES; test: Compound activity in a P-gp overexpressing cell line NCI/ADR-RES; type: cell-based; conditions: for IC50: P-gp overexpressing cell line
# [3] = system: MIA PaCa-2; test: MIA PaCa-2 cell line activity; type: cell-based; conditions: Table 2, read-out: MIA PaCa-2 (nM ± SD)
# [4] = system: MCF-7 WT; test: MCF-7 WT cell activity; type: cell-based; conditions: Homo sapiens, MCF7
# [5] = system: MCF-7-TUBB3 β3-tubulin; test: MCF-7-TUBB3 (β3-tubulin) cell activity; type: cell-based
# [6] = system: MCF-7/TAX Pgp; test: MCF-7/TAX (Pgp) cell activity; type: cell-based; conditions: for EC50: Homo sapiens, MCF7
# [7] = target: tubulin (Bos taurus, UniProt P81947+Q6B856); test: Inhibition of [3H]colchicine binding to tubulin
# [8] = Homo sapiens, NCI/ADR-RES, Table 1, read-out: NCl/ADR-RES IC50 (nM) ± SD
# [9] = Homo sapiens, NCI/ADR-RES, Table 2, read-out: NCI/ADR-RES IC50 (nM) ± SD
# Chain of tubulin (Q6B856 whole entry): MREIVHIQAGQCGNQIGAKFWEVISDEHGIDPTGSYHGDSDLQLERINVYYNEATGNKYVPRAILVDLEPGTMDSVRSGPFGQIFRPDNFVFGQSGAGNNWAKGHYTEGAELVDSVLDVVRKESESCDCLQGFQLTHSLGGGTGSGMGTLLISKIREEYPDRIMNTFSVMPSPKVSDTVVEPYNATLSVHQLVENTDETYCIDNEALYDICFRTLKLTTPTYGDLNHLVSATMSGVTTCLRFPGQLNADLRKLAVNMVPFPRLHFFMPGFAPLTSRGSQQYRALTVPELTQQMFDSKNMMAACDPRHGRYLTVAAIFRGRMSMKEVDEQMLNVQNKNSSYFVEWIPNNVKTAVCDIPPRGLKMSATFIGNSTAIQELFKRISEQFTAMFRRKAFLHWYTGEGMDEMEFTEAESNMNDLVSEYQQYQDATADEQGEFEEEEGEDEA
# Chain of tubulin (P81947 whole entry): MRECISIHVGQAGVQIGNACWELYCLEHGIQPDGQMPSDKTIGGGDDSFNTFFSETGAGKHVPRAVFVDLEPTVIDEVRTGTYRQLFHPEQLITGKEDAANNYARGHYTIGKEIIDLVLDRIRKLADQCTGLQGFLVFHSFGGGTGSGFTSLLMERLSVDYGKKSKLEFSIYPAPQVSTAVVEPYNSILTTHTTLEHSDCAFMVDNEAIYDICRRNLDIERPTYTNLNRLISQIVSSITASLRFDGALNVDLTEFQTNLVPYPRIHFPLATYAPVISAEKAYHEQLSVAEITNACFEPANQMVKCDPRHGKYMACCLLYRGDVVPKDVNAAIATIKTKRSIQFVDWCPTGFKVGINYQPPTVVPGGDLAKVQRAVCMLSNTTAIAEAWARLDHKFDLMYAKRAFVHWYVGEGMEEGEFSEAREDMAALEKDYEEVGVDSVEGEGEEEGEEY
SMILES,"IC50 ([1]; Homo sapiens, Table 1) [nM]","IC50 [2, 8] [nM]","IC50 [2, 9] [nM]",EC50 [4] [µM],EC50 [5] [µM],RESISTANCE RATIO β3-tubulin/WT ([5]; MCF-7-TUBB3 vs MCF-7 WT),EC50 [6] [µM],RESISTANCE RATIO Pgp/WT ([6]; MCF-7/TAX vs MCF-7 WT),further results
"COc1ccc(/C=C\c2cc(OC)c(OC)c(OC)c2)cc1O [CS-A4, Combretastatin A-4, reference compound]",,,,,,,,,"IC50 ([1]; Table 1): 3.5 ± 0.7 nM; IC50 ([1]; Table 2): 3.5 ± 0.7 nM; IC50 ([2]; Table 1, read-out: NCl/ADR-RES IC50 (nM) ± SD): 2.3 ± 0.4 nM; IC50 ([2]; Table 2, read-out: NCI/ADR-RES IC50 (nM) ± SD): 2.3 ± 0.4 nM"
"COc1ccc(N(C)c2nc(Cl)nc3cnn(C)c23)cc1 [Compound 4, 5-chloro-N-(4-methoxyphenyl)-N,1-dimethyl-1H-pyrazolo[4,3-d]pyrimidin-7-amine]",9 ± 0.7,5,5,0.002 ± 0.0003,0.0033 ± 0.0004,1.1,0.0151 ± 0.002,3.8,IC50 ([3]; Homo sapiens): 22.7 ± 1.13 nM
"CSc1ccc(N(C)c2nc(Cl)nc3cnn(C)c23)cc1 [Compound 5, 5-chloro-N,1-dimethyl-N-(4-(methylthio)phenyl)-1H-pyrazolo[4,3-d]pyrimidin-7-amine]",31 ± 2,17 ± 3,17 ± 3,,,,,,IC50 ([3]; Homo sapiens): 20.9 ± 0.651 nM
"COc1ccc2c(c1)CCCN2c1nc(Cl)nc2cnn(C)c12 [Compound 6, 1-(5-chloro-1-methyl-1H-pyrazolo[4,3-d]pyrimidin-7-yl)-6-methoxy-1,2,3,4-tetrahydroquinoline]",17 ± 2,8 ± 0.7,8 ± 0.7,,,,,,IC50 ([3]; Homo sapiens): 48 ± 2.77 nM
"COc1ccc(N(C)c2nc(Cl)nc3cnn(C)c23)cc1F [Compound 6d7, 5-chloro-N-(3-fluoro-4-methoxyphenyl)-N,1-dimethyl-1H-pyrazolo[4,3-d]pyrimidin-7-amine]",,,7 ± 3,0.0017 ± 0.0002,0.0026 ± 0.0004,1.6,0.0081 ± 0.0002,4.8,"IC50 ([1]; Homo sapiens, Table 2): 9 ± 1 nM"
"COc1cccc2cc(N(C)c3nc(Cl)nc4cnn(C)c34)ccc12 [Compound 7, 5-chloro-N-(5-methoxynaphthalen-2-yl)-N,1-dimethyl-1H-pyrazolo[4,3-d]pyrimidin-7-amine]",14 ± 3,11 ± 0.7,11 ± 0.7,0.0352 ± 0.0047,0.0168 ± 0.0015,0.5,0.043 ± 0.0072,1.2,
"CCOc1ccc(N(C)c2nc(Cl)nc3cnn(C)c23)cc1 [Compound 8, 5-chloro-N-(4-ethoxyphenyl)-N,1-dimethyl-1H-pyrazolo[4,3-d]pyrimidin-7-amine]",2 ± 1,4 ± 1,4 ± 1,0.0077 ± 0.0007,0.0097 ± 0.001,1.3,0.0313 ± 0.0035,4.0,fold improvement of OVCAR-8 cell line activity ([1]; over compound 4): around 4 fold
"CC(C)Oc1ccc(N(C)c2nc(Cl)nc3cnn(C)c23)cc1 [Compound 9, 5-chloro-N-(4-isopropoxyphenyl)-N,1-dimethyl-1H-pyrazolo[4,3-d]pyrimidin-7-amine]",49 ± 10,44 ± 8,44 ± 8,,,,,,
"CN(c1ccc(OC(F)(F)F)cc1)c1nc(Cl)nc2cnn(C)c12 [Compound 10, 5-chloro-N,1-dimethyl-N-(4-(trifluoromethoxy)phenyl)-1H-pyrazolo[4,3-d]pyrimidin-7-amine]",880 ± 40,730 ± 100,730 ± 100,,,,,,
"COc1ccc(Nc2nc(Cl)nc3cnn(C)c23)cc1 [Compound 11, 5-chloro-N-(4-methoxyphenyl)-1-methyl-1H-pyrazolo[4,3-d]pyrimidin-7-amine]",> 5000,> 5000,,,,,,,activity in OVCAR-8 cell line [1]: not active; activity in NCI/ADR-RES cell line [2]: not active; colchicine inhibition [7]: did not show colchicine inhibition
"Nc1ccn([C@@H]2O[C@H](CO)[C@@H](O)C2(F)F)c(=O)n1 [GEM, reference compound]",,,,,,,,,IC50 [3]: 297 nM
"Nc1nc2[nH]cc(CCc3ccc(C(=O)N[C@@H](CCC(=O)O)C(=O)O)cc3)c2c(=O)[nH]1 [PMX, reference compound]",,,,,,,,,IC50 [3]: 16.1 ± 1.4 nM
"CC(=O)O[C@H]1C(=O)[C@@]2(C)[C@H]([C@H](OC(=O)c3ccccc3)[C@]3(O)C[C@H](OC(=O)[C@H](O)[C@@H](NC(=O)c4ccccc4)c4ccccc4)C(C)=C1C3(C)C)[C@]1(OC(C)=O)CO[C@@H]1C[C@@H]2O [Paclitaxel, reference compound]",7 ± 2,> 5000,> 5000,0.194,2.07,,3.23,,[…] β3-tubulin/WT ([5]; MCF-7-TUBB3 vs MCF-7 WT): 10.6; […] Pgp/WT ([6]; MCF-7/TAX vs MCF-7 WT): 16.6

# Source: patent publication US11897886B2, “Pyrazolo[4,3-d]pyrimidines as antitumor agents” (Duquesne University of the Holy Spirit, priority 2018, dated 2024)
